# Measurements as given in ChEMBL document CHEMBL1126805, “Synthesis and evaluation of a series of benzylaniline hydrochlorides as potential cytotoxic and antimitotic agents acting by inhibition of tubulin polymerization” (J Med Chem, 1993).
# What was measured:
# Tubulin = Tubulin (Bos taurus, UniProt Q6B856+Q862F3); assay: In vitro inhibition of bovine electrophoretically homogeneous tubulin polymerization.; assay type: functional
# OVCAR-3 = assay: Tested for cytotoxicity against OVCAR-3 (ovarian cancer) cell line.; assay type: functional, Homo sapiens
# NCI-H522 = assay: Tested for cytotoxicity against NCI-H522 (non-small-cell lung cancer) cell line.; assay type: functional, Homo sapiens
# CAKI-1 = assay: Tested for cytotoxicity against CAKI-1 renal cancer; assay type: functional, Homo sapiens
# DMS-273 = assay: Tested for cytotoxicity against DMS 273 (small-cell lung cancer) cell line.; assay type: functional, Homo sapiens
# COLO 205 = assay: Tested for cytotoxicity against COLO 205 (colon cancer) cell line.; assay type: functional, Homo sapiens
# SF-295 = assay: In vitro cytotoxicity against SF-295 (CNS cancer) cell line.; assay type: functional, Homo sapiens
# M14 = assay: Tested for cytotoxicity against M14 melanoma; assay type: functional, Homo sapiens; conditions: Homo sapiens, M14
# HL-60 = assay: Tested for cytotoxicity against human cancer cell lines HL-60(TB) (leukemia) cell line.; assay type: functional
# Tubulin, sequence (Q6B856 whole entry): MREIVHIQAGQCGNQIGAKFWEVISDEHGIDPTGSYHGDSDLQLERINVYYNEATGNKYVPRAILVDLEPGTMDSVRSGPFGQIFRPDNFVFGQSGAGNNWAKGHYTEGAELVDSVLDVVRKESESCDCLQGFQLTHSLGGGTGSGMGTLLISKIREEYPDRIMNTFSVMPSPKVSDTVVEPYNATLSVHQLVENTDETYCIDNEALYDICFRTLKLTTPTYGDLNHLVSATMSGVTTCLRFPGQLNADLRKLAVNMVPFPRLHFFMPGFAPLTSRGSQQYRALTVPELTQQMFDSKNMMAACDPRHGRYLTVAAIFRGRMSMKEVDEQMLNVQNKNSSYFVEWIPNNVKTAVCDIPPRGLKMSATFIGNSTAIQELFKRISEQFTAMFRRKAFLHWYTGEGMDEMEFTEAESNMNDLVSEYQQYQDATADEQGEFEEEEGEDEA
# Tubulin, sequence (Q862F3 whole entry): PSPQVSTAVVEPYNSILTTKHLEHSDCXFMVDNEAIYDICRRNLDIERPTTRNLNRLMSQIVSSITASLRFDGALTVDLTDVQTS
Structure (SMILES),IC50 (Tubulin) [nM],"GI50 (OVCAR-3; Homo sapiens, OVCAR-3) [nM]","GI50 (NCI-H522; Homo sapiens, NCI-H522) [nM]","GI50 (CAKI-1; Homo sapiens, CAKI-1) [nM]","GI50 (DMS-273; Homo sapiens, DMS-273) [nM]","GI50 (COLO 205; Homo sapiens, COLO 205) [nM]","GI50 (SF-295; Homo sapiens, SF-295) [nM]",GI50 (DMS-273) [nM],GI50 (M14) [nM],"GI50 (HL-60; Homo sapiens, HL-60) [nM]",GI50 (COLO 205) [nM],GI50 (OVCAR-3) [nM],GI50 (NCI-H522) [nM],GI50 (CAKI-1) [nM],GI50 (SF-295) [nM],GI50 (HL-60) [nM]
COc1ccc(/N=C/c2cc(OC)c(OC)c(OC)c2)cc1,> 40000,> 100000,> 100000,> 100000,33000,–,–,–,–,–,–,–,–,–,–,–
COc1cc(CNc2ccc(C(C)C)cc2)cc(OC)c1OC,> 40000,–,–,–,12900,–,–,–,–,–,–,–,–,–,–,–
CCOc1ccc(NCc2cc(OC)c(OC)c(OC)c2)cc1,12000,340,380,2040,–,432,274,296,403,296,–,–,–,–,–,–
COc1ccc(NCc2cc(OC)c(OC)c(OC)c2)cc1,8900,–,–,–,–,–,–,534,2380,–,1660,1960,2760,2500,2320,834
COc1cc(CNc2ccc(C)cc2)cc(OC)c1OC,6000,184,–,192,92.6,152,163,–,150,–,–,–,–,–,–,122
